“Also recorded” adds a separate entry of the source. Square brackets hold non-standard residues; d marks the D form. pGlu = O=C1CC[C@@H](C(=O)O)N1
Columns and labels:
[1] = Erythropoietic and hematopoietic effects, 28 days i.v. in rabbits; format: in vivo, New Zealand White rabbits; details: 30, 90, 300 μg/kg per dose i.v. twice daily for 28 days, baseline vs. day 29
Experimental: Further the erythropoietic and hematopoietic affects of Peptide ID were evaluated in rabbits. Blood samples were taken of all rabbits prior to the initiation of the study to establish the hematological baseline for the animals. Peptide ID was administered twice daily i.v. to New Zealand White rabbits for 28 days. For this study, six males and females were assigned to groups 1 and 4, and four males and four females were assigned to groups 2 and 3. Group 1 received 0, group 2 received 30 μg (24 nmol/kg bw), group 3 received 90 μg/kg (72 nmol/kg bw); and group 4 received 300 μg/kg (240 nmol/kg bw) per dose Peptide ID in PBS by bolus i.v. administration. Blood samples to assay for hematological variables were collected on day 29.

pressure ulcer = test: Decubitus ulcer (pressure sore) assay; format: in vivo, Sprauge-Dawley rats; details: FIG. 20
Experimental: A decubitus ulcer (pressure sore) assay was performed on 24 adult Sprauge-Dawley rats in accordance with the disclosure of Pierce et al., Selective A2A adenosine receptor activation reduces skin pressure ulcer formation and inflammation, Am J Physiol Heart Circ Physiol 281:67-74, 2001. Briefly, a ferromagnetic steel plate was implanted under a dorsal region of the rats skin. A rectangular permanent magnet was applied to the area of the skin under which the plate was implanted in order to compress the skin between the plate and the magnet. This compression reduced the flow of blood to the skin causing ischemia. The rats were subjected to a cycle of ischemia-reperfusion (2 hours ischemia with a 0.5 hour reperfusion) for a 72-hour period. […] Daily the area of the wound on each rat was measured for a period of 12 days.

bilateral renal ischemia = test: Bilateral renal ischemia assay; format: in vivo, C57/BL6 mice
Experimental: Sixty male C57/BL6 mice (˜25 g; Charles River Laboratories) were anesthetized with ketamine (150 mg/kg) and xylazine (15 mg/kg) i.p. Each animal was placed on a homeothermic blanket set at 37° C., and after a mid-line laparotomy, the renal pedicles were clamped for 30 minutes using nontraumatic vascular clamps. Peptide ID was administered at the indicated dose via i.p. Injection at 1 minute, 6 hours, and 12 hours after reperfusion. In a single dose study, the mice received a control (PBS), 1 μg/kg of Peptide IG at 1 minute, 1 μg/kg of Peptide IG at 30 minutes, 1 μg/kg of Peptide ID at 6 hours, or 10 μg/kg of Peptide ID at 6 hours (12 mice per group). In a multiple dose study, the mice received either multiple doses of a control (PBS), 0.1 μg/kg of Peptide ID, 1 μg/kg of Peptide ID, or 10 μg/kg of Peptide ID at 1 minute, 6 hours and 12 hours into reperfusion.
Twenty-four hours later, mice were reanesthetized and blood was obtained by cardiac puncture. Plasma urea and creatine were used as indicators of renal dysfunction and aspartate aminotransferase was used as an indicator of renal injury. Data were analyzed using ANOVA followed by Dunnett's post hoc test comparison.

[2] = system: recall of previously experienced objects; test: Novel object recognition paradigm; format: in vivo, Wistar rats
Experimental: A novel object recognition paradigm in rats was used to evaluate their recall of previously experienced objects. Specifically, adult Wistar rats were exposed to novel test objects and then reexposed to them 24 hours later. Animals were divided into 5 groups receiving either: (1) vehicle, (2) galantamine (3 mg/kg i.p.) 1 hr before testing as a positive control, (3) Peptide ID (24 nmol/kg bw i.p.) 3 hours after the first exposure to the novel objects, (4) Peptide ID (24 nmol/kg bw i.p.) twice daily for 5 days before training and continued through the day immediately after training, and (5) Peptide ID (24 nmol/kg bw i.p.) 1 hour before first exposure to the novel object.

histamine = test: Histamine induced wheal formation, persistence after single dose; format: in vivo, rats; details: FIG. 16
Experimental: The ability of Peptide ID to reduce plasma extravasation (wheal) induced by intradermal histamine administration was evaluated in rats. Animals were pre-administered Evans Blue dye (which binds tightly to albumin) to provide a visual marker of vascular leak. To determine the persistence of peptide IG activity, at various time periods after Peptide ID administration (30 μg/kg, administered intravenously), an intradermal dose of 0.12 μg histamine was administered, and the extent of dye leak quantitated by planimetry performed on digital photographs obtained 15 minutes following histamine placement, a time at which wheal surface area is greatest. Each animal was tested at only a single time point to avoid influence of histamine administration on subsequent responses.

[3] = system: total body gamma radiation; test: Radiomitigating activity in hematopoietic screening assay; format: in vivo, C57BL/6 mice; details: for survival at day 30: 30 ug/kg subcutaneously from 24 hrs after irradiation, daily for 29 days
Experimental: The ability of peptides useful in the current therapeutic method to mitigate the effects of a radioactive agent on the hematopoietic system was evaluated in a murine model of radiation injury. Briefly, 80 C57BL/6 mice (50% female and 50% male, 15-28 gm) were used in the study were divided into two groups.
In both groups the radiation was administered to the mice as a single uniform total body dose of gamma radiation from a ^137Cs radiation source (GammaCell 40; Nordion International, Kanata, Ontario, Canada) at an exposure rate of 65-69 cGy/minute+/−2.5 cGy.
Group A received a LD70/30 dose of radiation (796 cGy) and then 20 of the mice were administered Peptide ID (30 ug/kg subcutaneously) at 24 hrs after irradiation and then once a day for 29 days. The remaining 20 mice (control group) received PBS (subcutaneously) at 24 hrs after irradiation and then once a day for 29 days.
The remaining 20 mice (control group) received PBS (subcutaneously) at 24 hrs after irradiation and then once a day for 29 days.
The mice were monitored for survival once a day until signs of early euthanasia appeared, then twice/day until day 30.

## UEQLERALNSS ([pGlu]EQLERALNSS-OH; also: acetate/ammonium mixed salt) [Peptide ID, first glutamine replaced with pyroglutamate]
[1]; FIG. 3A
  hemoglobin concentration: no difference; also recorded: no effect
[1]; FIG. 3B
  hematocrit: no difference; also recorded: no effect
[1]; FIG. 3C
  platelet count: no difference; also recorded: no effect
Pressure ulcer; 30 μg/kg sc daily, compared with all groups
  wound (ulcer) size (area): smallest wound size
Pressure ulcer; Peptide ID 30 μg/kg sc twice or daily, EPO daily, 12 days, versus saline
  wound (ulcer) size (area): reduced the size of the wound; also recorded: better wound healing
Bilateral renal ischemia; multiple doses 1 μg/kg at 1 minute, 6 hours and 12 hours into reperfusion, FIG. 7
  creatinine, urea and aspartate aminotransferase (biochemical markers of renal dysfunction): reduction in these biochemical markers of renal dysfunction
Bilateral renal ischemia; multiple doses 10 μg/kg at 1 minute, 6 hours and 12 hours into reperfusion, FIG. 7
  creatinine, urea and aspartate aminotransferase (biochemical markers of renal dysfunction): reduction in these biochemical markers of renal dysfunction
Bilateral renal ischemia; single dose 1 μg/kg at 6 hours into reperfusion, 24 hrs of reperfusion, FIG. 6
  creatinine, urea and aspartate aminotransferase (biochemical markers of renal dysfunction): reduction in these biochemical markers of renal dysfunction
Bilateral renal ischemia; single dose 10 μg/kg at 6 hours into reperfusion, 24 hrs of reperfusion, FIG. 6
  creatinine, urea and aspartate aminotransferase (biochemical markers of renal dysfunction): reduction in these biochemical markers of renal dysfunction
[2]; galantamine 3 mg/kg of bw, Peptide ID 24 nmol/kg of bw at various time points, FIG. 9
  recognition of the novel objects: increased the rats recognition of the novel objects
[2]; group 3: 24 nmol/kg bw i.p. 3 hours after the first exposure to the novel objects
  recognition of the novel objects: improved recognition of the novel objects
[2]; group 4: 24 nmol/kg bw i.p. twice daily for 5 days before training and through the day after training
  recognition of the novel objects: improved recognition of the novel objects
histamine; following a single dose of 30 μg/kg intravenously
  persistence of the suppressive effect on wheal formation: up to 24 hours
histamine; single dose 30 μg/kg intravenously before 0.12 μg intradermal histamine
  wheal formation (plasma extravasation): suppress wheal formation
[3]; 796 cGy (LD70/30), FIG. 21A
  survival at day 30: 45%
[3]; 796 cGy and 831 cGy, 30 ug/kg subcutaneously daily
  thirty-day survival and overall survival time versus PBS: significantly increased the overall survival time
[3]; 831 cGy (LD90/30), FIG. 21B
  survival at day 30: 20%

Reference: patent publication US9580465B2, “Tissue protective peptides and peptide analogs for preventing and treating diseases and disorders associated with tissue damage” (ARAIM PHARMACEUTICALS, INC., priority 2008, dated 2017)
